According to ChEMBL document CHEMBL1201862, “PubChem BioAssay data set” (2004):
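Results reflect a 48-hour exposure of cells in 96-well plates to compound at five concentrations. GI50 is the concentration that inhibits growth by half.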 Activity calls are given as the source filed them. Rule as the data show it: active = GI50 up to about 1.1 µM and inactive = higher.

Experiments:
Test in all cases: inhibition of tumour cell growth, NCI panel, 48 h
[1] = system: ACHN
[2] = system: CAKI-1
[3] = system: HCC 2998
[4] = system: HOP-62
[5] = system: HOP-92
[6] = system: IGROV-1
[7] = system: LOX IMVI
[8] = system: MDA-MB-231
[9] = system: Malme-3M
[10] = system: NCI-H23
[11] = system: OVCAR-8
[12] = system: PC-3
[13] = system: RPMI-8226
[14] = system: RXF 393
[15] = system: SF-268
[16] = system: SK-MEL-28
[17] = system: SK-MEL-5
[18] = system: SK-OV-3
[19] = system: U-251
[20] = system: NCI-H226

Measured: GI50

CCCCn1cnc2c(SC)ncnc21
inactive: [1] > 100 µM | [2] > 100 µM | [3] > 100 µM | [4] > 100 µM | [5] > 100 µM | [6] > 100 µM | [7] > 100 µM | [8] > 100 µM | [9] > 100 µM | [10] > 100 µM | [11] > 100 µM | [12] > 100 µM | [13] > 100 µM | [14] > 100 µM | [15] > 100 µM | [16] > 100 µM | [17] > 100 µM | [18] > 100 µM | [19] > 100 µM

CN(O)C(=O)CCC(NC(=O)CCC(N)C(=O)O)C(=O)NCC(=O)O (centres undefined)
inactive: [1] > 100 µM | [2] > 100 µM | [3] > 100 µM | [4] > 100 µM | [5] > 100 µM | [6] > 100 µM | [7] > 100 µM | [8] > 100 µM | [20] > 100 µM | [10] > 100 µM | [11] > 100 µM | [12] > 100 µM | [13] > 100 µM | [14] > 100 µM | [15] > 100 µM | [16] > 100 µM | [17] > 100 µM | [18] > 100 µM | [19] > 100 µM

Brc1ccc(-c2[nH]c3ccccc3c2/N=N\c2ccccc2)cc1
inactive: [1] 20.6 µM | [2] 14.7 µM | [3] 16.8 µM | [4] 18.1 µM | [5] 18.2 µM | [6] 12.1 µM | [7] 30.8 µM | [8] 19.1 µM | [9] 19.1 µM | [10] 18.2 µM | [12] 16.1 µM | [13] 21.7 µM | [14] 16.6 µM | [15] 17.9 µM | [16] 21.2 µM | [17] 18.3 µM | [18] 18.9 µM | [19] 17.6 µM

CC(C)(C)OC(=O)NC(Cc1ccc(OC(C)(C)C)cc1)C(=O)N[C@H]1CCC[C@H]1C(=O)NC(Cc1ccccc1)C(=O)N1CCCC1C(N)=O (some centres undefined)
inactive: [1] > 100 µM | [2] > 100 µM | [3] > 100 µM | [4] > 100 µM | [5] > 100 µM | [6] > 100 µM | [7] > 100 µM | [8] > 100 µM | [9] > 100 µM | [20] > 100 µM | [10] > 100 µM | [11] > 100 µM | [12] > 100 µM | [13] 80.5 µM | [14] > 100 µM | [15] > 100 µM | [16] > 100 µM | [17] > 100 µM | [18] > 100 µM | [19] > 100 µM

COC(=O)C1C(O)C(C)C(O)C(C)(O)C=C(C)C2=C3C(=C(C)C(=O)c4c(O)c(c(C)c(OC(C)=O)c43)NC(=O)C(C)=C/C=C\C(C)(O)C(O)C(C)C1O)OCO2 (centres undefined)
inactive: [1] > 100 µM | [3] 57.4 µM | [4] > 100 µM | [5] 24.7 µM | [6] 55.6 µM | [7] 35.3 µM | [8] 32.5 µM | [9] 33.7 µM | [20] > 100 µM | [10] > 100 µM | [11] > 100 µM | [12] 32.5 µM | [13] 45.4 µM | [14] > 100 µM | [15] 75.2 µM | [16] > 100 µM | [17] 18.3 µM | [18] > 100 µM | [19] > 100 µM

Clc1ccccc1-c1nn2c(CCCCCCCCc3nnc4sc(-c5ccccc5Cl)nn34)nnc2s1
inactive: [1] > 100 µM | [2] > 100 µM | [3] > 100 µM | [4] > 100 µM | [5] > 100 µM | [7] 63.1 µM | [8] 87.7 µM | [9] > 100 µM | [20] > 100 µM | [10] > 100 µM | [11] > 100 µM | [12] > 100 µM | [13] 54 µM | [14] > 100 µM | [15] > 100 µM | [16] > 100 µM | [17] 63.1 µM | [18] > 100 µM | [19] > 100 µM

CCOc1cc(NC(C)=O)ccc1C(=O)NN1C(=O)CSC1c1ccc(O)c(OC)c1 (centres undefined)
inactive: [1] 51.4 µM | [2] 44.4 µM | [3] 32.1 µM | [4] > 100 µM | [5] 59.7 µM | [6] 60.4 µM | [7] 87.3 µM | [8] 53.8 µM | [9] 46.8 µM | [20] 69.5 µM | [10] 61.7 µM | [11] 23.9 µM | [12] 44 µM | [13] 40.4 µM | [14] 34.7 µM | [15] 71.4 µM | [16] 84.5 µM | [17] 52.1 µM | [18] 93.5 µM

CC(C)(CO)CNc1cc(Cl)nc(N)n1
inactive: [1] > 100 µM | [2] > 100 µM | [3] > 100 µM | [4] > 100 µM | [5] > 100 µM | [6] > 100 µM | [7] > 100 µM | [8] > 100 µM | [9] > 100 µM | [20] > 100 µM | [10] > 100 µM | [11] > 100 µM | [12] > 100 µM | [13] > 100 µM | [14] > 100 µM | [15] > 100 µM | [16] > 100 µM | [17] > 100 µM | [19] > 100 µM

CC(=O)NC(Cc1ccc(O)cc1)C(=O)O (centres undefined)
inactive: [1] > 100 µM | [2] > 100 µM | [3] > 100 µM | [4] > 100 µM | [5] > 100 µM | [6] > 100 µM | [7] > 100 µM | [8] > 100 µM | [9] > 100 µM | [20] > 100 µM | [10] > 100 µM | [11] > 100 µM | [12] > 100 µM | [13] > 100 µM | [14] > 100 µM | [15] > 100 µM | [16] > 100 µM | [17] > 100 µM | [18] > 100 µM | [19] > 100 µM

CCOC(=O)C(NC(=O)CC)(N1CCN(c2cc3c(cc2F)c(=O)c(C(=O)O)cn3C2CC2)CC1)C(F)(F)F (centres undefined)
inactive: [1] > 100 µM | [2] > 100 µM | [3] > 100 µM | [4] > 100 µM | [5] 70.8 µM | [6] > 100 µM | [7] > 100 µM | [8] 52.2 µM | [9] > 100 µM | [20] > 100 µM | [10] > 100 µM | [11] > 100 µM | [12] > 100 µM | [13] > 100 µM | [14] > 100 µM | [15] > 100 µM | [16] > 100 µM | [17] > 100 µM | [18] > 100 µM | [19] 92.9 µM

C/C(=C\c1ccccc1)C(=O)NCc1ccc(C(=O)NCCc2c[nH]c3ccccc23)cc1
inactive: [1] 38.1 µM | [2] > 100 µM | [3] 16 µM | [4] 82 µM | [5] > 100 µM | [6] > 100 µM | [7] 61.1 µM | [8] > 100 µM | [9] > 100 µM | [20] > 100 µM | [10] 80.4 µM | [11] > 100 µM | [12] 54.6 µM | [13] > 100 µM | [14] > 100 µM | [15] > 100 µM | [16] > 100 µM | [17] 50.5 µM | [18] > 100 µM | [19] > 100 µM

CC(=O)Oc1ccc(/C=C/C(=O)NCC(NC(=O)/C=C/c2ccc(OC(C)=O)c(OC(C)=O)c2)C(=O)O)cc1OC(C)=O (centres undefined)
inactive: [1] > 100 µM | [2] > 100 µM | [3] > 100 µM | [4] > 100 µM | [5] > 100 µM | [6] > 100 µM | [7] 97.3 µM | [8] > 100 µM | [9] > 100 µM | [20] > 100 µM | [10] > 100 µM | [11] > 100 µM | [12] > 100 µM | [13] > 100 µM | [14] > 100 µM | [15] > 100 µM | [16] > 100 µM | [17] > 100 µM | [19] > 100 µM

CCOC(=O)C1(C#N)C(=O)c2cc[n+](CC[n+]3ccc4c(c3)C(=O)C(C#N)(C(=O)OCC)C4=O)cc2C1=O (centres undefined)
inactive: [1] > 100 µM | [2] > 100 µM | [3] > 100 µM | [5] > 100 µM | [6] > 100 µM | [7] 74.1 µM | [8] 60.5 µM | [9] 60.4 µM | [20] > 100 µM | [10] > 100 µM | [11] > 100 µM | [12] > 100 µM | [13] > 100 µM | [14] > 100 µM | [15] 96.8 µM | [16] > 100 µM | [17] 18.4 µM | [18] > 100 µM | [19] > 100 µM

O=C(Nc1cccc(C(F)(F)F)c1)c1cc(Br)cc(Br)c1O [FLUOROSALAN]
inactive: [1] 3.06 µM | [2] 2.3 µM | [3] 3.03 µM | [4] 5.22 µM | [5] 2.27 µM | [6] 4.28 µM | [7] 2.06 µM | [8] 4.34 µM | [20] 3.51 µM | [10] 2.22 µM | [11] 3.09 µM | [12] 2.32 µM | [13] 2.08 µM | [14] 2.71 µM | [15] 4.25 µM | [16] 3.38 µM | [17] 1.65 µM | [18] 2.81 µM | [19] 3.79 µM
